From ChEMBL document CHEMBL6109078, “Pyrylium derivatives as outer membrane permeabilizers against MDR gram-negative bacteria via multi-target mode of action” (Eur J Med Chem, 2025)
Bridge positions count the residues as written; N and C are the ends. Square brackets hold non-standard residues; d marks the D form. Peptide text beside a SMILES is read from it. * marks the point of attachment. X1 = CC[C@H](C)CCCCC(=O)*; Dab = NCC[C@H](N)C(=O)O

What was measured:
Escherichia coli [1] = assay: Synergistic antibacterial activity against multi-drug resistant Escherichia coli clinical isolate 1 assessed as fractional inhibitory concentration index in presence of polymyxin B by checkerboard assay; type: functional
Acinetobacter baumannii [2] = assay: Antibacterial activity against multi-drug resistant Acinetobacter baumannii clinical isolate 1 assessed as inhibition of bacterial growth by CLSI protocol based method; type: functional
Acinetobacter baumannii [3] = assay: Synergistic antibacterial activity against multi-drug resistant Acinetobacter baumannii clinical isolate 5 assessed as inhibition of bacterial growth by measuring polymyxin B MIC by checkerboard assay; type: functional
Escherichia coli [4] = assay: Synergistic antibacterial activity against Escherichia coli CG-4 expressing MCR-1 and NDM-1 assessed as inhibition of bacterial growth in presence of polymyxin B by checkerboard assay; type: functional
[5] = Binding affinity to His-tagged LptA (unknown origin) extracted from Escherichia coli BL21 (DE3) cells assessed as dissociation constant by BLI analysis; design: species or system Bacteria
Escherichia coli [6] = assay: Synergistic antibacterial activity against Escherichia coli ATCC 35218 assessed as fractional inhibitory concentration index in presence of polymyxin B by checkerboard assay; type: functional
Escherichia coli [7] = assay: Synergistic antibacterial activity against Escherichia coli ATCC 35218 assessed as inhibition of bacterial growth by measuring polymyxin B MIC by checkerboard assay; type: functional; conditions: Escherichia coli, ATCC 35218; read-out: MIC
Acinetobacter baumannii [8] = assay: Synergistic antibacterial activity against multi-drug resistant Acinetobacter baumannii clinical isolate 14 assessed as inhibition of bacterial growth by measuring polymyxin B MIC by checkerboard assay; type: functional
Acinetobacter baumannii [9] = assay: Antibacterial activity against multi-drug resistant Acinetobacter baumannii clinical isolate 43 assessed as inhibition of bacterial growth by CLSI protocol based method; type: functional
Escherichia coli [10] = assay: Synergistic antibacterial activity against multi-drug resistant Escherichia coli clinical isolate 1 assessed as inhibition of bacterial growth in presence of polymyxin B by checkerboard assay; type: functional
Klebsiella pneumoniae [11] = assay: Antibacterial activity against Klebsiella pneumoniae BAA ATCC 1706 assessed as inhibition of bacterial growth by CLSI protocol based method; type: functional
Escherichia coli [12] = assay: Synergistic antibacterial activity against Escherichia coli ATCC 35218 assessed as inhibition of bacterial growth in presence of polymyxin B by checkerboard assay; type: functional
Acinetobacter baumannii [13] = assay: Synergistic antibacterial activity against multi-drug resistant Acinetobacter baumannii clinical isolate 14 assessed as inhibition of bacterial growth in presence of polymyxin B by checkerboard assay; type: functional
Acinetobacter baumannii [14] = assay: Antibacterial activity against multi-drug resistant Acinetobacter baumannii clinical isolate 14 assessed as inhibition of bacterial growth by CLSI protocol based method; type: functional
Acinetobacter baumannii [15] = assay: Antibacterial activity against multi-drug resistant Acinetobacter baumannii clinical isolate 2 assessed as inhibition of bacterial growth by CLSI protocol based method; type: functional
Escherichia coli [16] = assay: Synergistic antibacterial activity against Escherichia coli ATCC 25922 assessed as fractional inhibitory concentration index in presence of polymyxin B by checkerboard assay; type: functional
Escherichia coli [17] = assay: Synergistic antibacterial activity against Escherichia coli ATCC 25922 assessed as inhibition of bacterial growth in presence of polymyxin B by checkerboard assay; type: functional
Escherichia coli [18] = assay: Synergistic antibacterial activity against Escherichia coli ATCC 25922 assessed as inhibition of bacterial growth by measuring polymyxin B MIC by checkerboard assay; type: functional
Pseudomonas aeruginosa [19] = assay: Antibacterial activity Pseudomonas aeruginosa PAO1 assessed as inhibition of bacterial growth by CLSI protocol based method; type: functional
Escherichia coli [20] = assay: Antibacterial activity against ESBL positive Escherichia coli ATCC 35218 assessed as inhibition of bacterial growth by CLSI protocol based method; type: functional
Acinetobacter baumannii [21] = assay: Antibacterial activity against multi-drug resistant Acinetobacter baumannii clinical isolate 5 assessed as inhibition of bacterial growth by CLSI protocol based method; type: functional
Escherichia coli [22] = assay: Antibacterial activity against Escherichia coli ATCC 25922 assessed as inhibition of bacterial growth by CLSI protocol based method; type: functional
Klebsiella pneumoniae [23] = assay: Antibacterial activity against Klebsiella pneumoniae ATCC 700603 assessed as inhibition of bacterial growth by CLSI protocol based method; type: functional
Acinetobacter baumannii [24] = assay: Synergistic antibacterial activity against multi-drug resistant Acinetobacter baumannii clinical isolate 43 assessed as inhibition of bacterial growth in presence of polymyxin B by checkerboard assay; type: functional
Acinetobacter baumannii [25] = assay: Synergistic antibacterial activity against Acinetobacter baumannii ATCC 19606 assessed as inhibition of bacterial growth by measuring polymyxin B MIC by checkerboard assay; type: functional
Acinetobacter baumannii [26] = assay: Synergistic antibacterial activity against multi-drug resistant Acinetobacter baumannii clinical isolate 1 assessed as inhibition of bacterial growth in presence of polymyxin B by checkerboard assay; type: functional
Escherichia coli [27] = assay: Synergistic antibacterial activity against Escherichia coli CG-4 expressing MCR-1 and NDM-1 assessed as fractional inhibitory concentration index in presence of polymyxin B by checkerboard assay; type: functional
Escherichia coli [28] = assay: Antibacterial activity against multi-drug resistant Escherichia coli clinical isolate 1 assessed as inhibition of bacterial growth by CLSI protocol based method; type: functional
Acinetobacter baumannii [29] = assay: Synergistic antibacterial activity against multi-drug resistant Acinetobacter baumannii clinical isolate 43 assessed as inhibition of bacterial growth by measuring polymyxin B MIC by checkerboard assay; type: functional
Acinetobacter baumannii [30] = assay: Antibacterial activity against multi-drug resistant Acinetobacter baumannii clinical isolate 10 assessed as inhibition of bacterial growth by CLSI protocol based method; type: functional
Escherichia coli [31] = assay: Antibacterial activity against Escherichia coli CG-4 expressing MCR-1 and NDM-1 assessed as inhibition of bacterial growth by CLSI protocol based method; type: functional
Acinetobacter baumannii [32] = assay: Synergistic antibacterial activity against multi-drug resistant Acinetobacter baumannii clinical isolate 1 assessed as fractional inhibitory concentration index in presence of polymyxin B by checkerboard assay; type: functional
Acinetobacter baumannii [33] = assay: Synergistic antibacterial activity against multi-drug resistant Acinetobacter baumannii clinical isolate 43 assessed as fractional inhibitory concentration index in presence of polymyxin B by checkerboard assay; type: functional
Acinetobacter baumannii [34] = assay: Synergistic antibacterial activity against Acinetobacter baumannii ATCC 19606 assessed as fractional inhibitory concentration index in presence of polymyxin B by checkerboard assay; type: functional
Escherichia coli [35] = assay: Synergistic antibacterial activity against multi-drug resistant Escherichia coli clinical isolate 1 assessed as inhibition of bacterial growth by measuring polymyxin B MIC by checkerboard assay; type: functional
Acinetobacter baumannii [36] = assay: Synergistic antibacterial activity against multi-drug resistant Acinetobacter baumannii clinical isolate 1 assessed as inhibition of bacterial growth by measuring polymyxin B MIC by checkerboard assay; type: functional
Acinetobacter baumannii [37] = assay: Antibacterial activity against multi-drug resistant Acinetobacter baumannii clinical isolate 4 assessed as inhibition of bacterial growth by CLSI protocol based method; type: functional
Acinetobacter baumannii [38] = assay: Antibacterial activity against multi-drug resistant Acinetobacter baumannii clinical isolate 51 assessed as inhibition of bacterial growth by CLSI protocol based method; type: functional
Acinetobacter baumannii [39] = assay: Synergistic antibacterial activity against Acinetobacter baumannii ATCC 19606 assessed as inhibition of bacterial growth in presence of polymyxin B by checkerboard assay; type: functional
Acinetobacter baumannii [40] = assay: Antibacterial activity against Acinetobacter baumannii ATCC 19606 assessed as inhibition of bacterial growth by CLSI protocol based method; type: functional
Acinetobacter baumannii [41] = assay: Synergistic antibacterial activity against multi-drug resistant Acinetobacter baumannii clinical isolate 5 assessed as inhibition of bacterial growth in presence of polymyxin B by checkerboard assay; type: functional
[42] = Binding affinity to His-tagged LptC (unknown origin) extracted from Escherichia coli BL21 (DE3) cells assessed as dissociation constant by BLI analysis; design: species or system Bacteria
Pseudomonas aeruginosa [43] = assay: Antibacterial activity Pseudomonas aeruginosa ATCC 27853 assessed as inhibition of bacterial growth by CLSI protocol based method; type: functional
Escherichia coli [44] = assay: Synergistic antibacterial activity against Escherichia coli CG-4 expressing MCR-1 and NDM-1 assessed as inhibition of bacterial growth by measuring polymyxin B MIC by checkerboard assay; type: functional
Escherichia coli [45] = assay: Antibacterial activity against Escherichia coli ATCC 25922 infected in Galleria mellonella larvae assessed as survival rate of larvae at 1 microg/ml relative to control; type: functional
Acinetobacter baumannii [46] = assay: Antibacterial activity against Acinetobacter baumannii ATCC 19606 infected in Galleria mellonella larvae assessed as survival rate of larvae at 1 microg/ml measured after 96 hrs relative to control; type: functional

CN(C)c1ccc(/C=C/c2cc(C(C)(C)C)[o+]c(C(C)(C)C)c2)cc1.O=S(=O)([O-])C(F)(F)F
fractional inhibitory concentration index (FICI) (Escherichia coli [1]): 0.047
MIC (Acinetobacter baumannii [2]): 100 µg/mL
MIC (Acinetobacter baumannii [3]): 0.006 µg/mL
MIC (Escherichia coli [4]): 3.13 µg/mL
Kd [5]: 160 µM
fractional inhibitory concentration index (FICI) (Escherichia coli [6]): 0.375
MIC (Escherichia coli [7]): 0.25 µg/mL
MIC (Acinetobacter baumannii [8]): 0.006 µg/mL
MIC (Acinetobacter baumannii [9]): 50 µg/mL
MIC (Escherichia coli [10]): 3.13 µg/mL
MIC (Klebsiella pneumoniae [11]): > 100 µg/mL
MIC (Escherichia coli [12]): 1.56 µg/mL
MIC (Acinetobacter baumannii [13]): 6.25 µg/mL
MIC (Acinetobacter baumannii [14]): 25 µg/mL
MIC (Acinetobacter baumannii [15]): 25 µg/mL
fractional inhibitory concentration index (FICI) (Escherichia coli [16]): 0.266
MIC (Escherichia coli [17]): 6.25 µg/mL
MIC (Escherichia coli [18]): 7.8 10^-4 ug/ml
MIC (Pseudomonas aeruginosa [19]): > 100 µg/mL
MIC (Escherichia coli [20]): 12.5 µg/mL
MIC (Acinetobacter baumannii [21]): 50 µg/mL
MIC (Escherichia coli [22]): 12.5 µg/mL
MIC (Klebsiella pneumoniae [23]): > 100 µg/mL
MIC (Acinetobacter baumannii [24]): 12.5 µg/mL
MIC (Acinetobacter baumannii [25]): 0.006 µg/mL
MIC (Acinetobacter baumannii [26]): 3.13 µg/mL
fractional inhibitory concentration index (FICI) (Escherichia coli [27]): 0.188
MIC (Escherichia coli [28]): 100 µg/mL
MIC (Acinetobacter baumannii [29]): 1 10^-4 ug/ml
MIC (Acinetobacter baumannii [30]): 25 µg/mL
MIC (Escherichia coli [31]): 25 µg/mL
fractional inhibitory concentration index (FICI) (Acinetobacter baumannii [32]): <0.032
fractional inhibitory concentration index (FICI) (Acinetobacter baumannii [33]): <0.25
fractional inhibitory concentration index (FICI) (Acinetobacter baumannii [34]): 0.188
MIC (Escherichia coli [35]): 0.2 µg/mL
MIC (Acinetobacter baumannii [36]): 0.05 µg/mL
MIC (Acinetobacter baumannii [37]): 25 µg/mL
MIC (Acinetobacter baumannii [38]): 50 µg/mL
MIC (Acinetobacter baumannii [39]): 1.56 µg/mL
MIC (Acinetobacter baumannii [40]): 12.5 µg/mL
MIC (Acinetobacter baumannii [41]): 12.5 µg/mL
Kd [42]: 17 µM
MIC (Pseudomonas aeruginosa [43]): > 100 µg/mL
MIC (Escherichia coli [44]): 0.39 µg/mL

CC(C)CCCCC(=O)N[C@@H](CCN)C(=O)N[C@H](C(=O)N[C@@H](CCN)C(=O)N[C@H]1CCNC(=O)[C@H]([C@@H](C)O)NC(=O)[C@H](CCN)NC(=O)[C@H](CCN)NC(=O)[C@H](CC(C)C)NC(=O)[C@@H](Cc2ccccc2)NC(=O)[C@H](CCN)NC1=O)[C@@H](C)O.CC[C@H](C)CCCCC(=O)N[C@@H](CCN)C(=O)N[C@H](C(=O)N[C@@H](CCN)C(=O)N[C@H]1CCNC(=O)[C@H]([C@@H](C)O)NC(=O)[C@H](CCN)NC(=O)[C@H](CCN)NC(=O)[C@H](CC(C)C)NC(=O)[C@@H](Cc2ccccc2)NC(=O)[C@H](CCN)NC1=O)[C@@H](C)O (X1-[Dab]T[Dab][Dab][Dab][dF]L[Dab][Dab]T; lactam 4-C)
MIC (Acinetobacter baumannii [2]): > 100 µg/mL
survival at 1 µg/mL (Escherichia coli [45]): 40%
MIC (Acinetobacter baumannii [9]): > 100 µg/mL
MIC (Acinetobacter baumannii [14]): 0.39 µg/mL
MIC (Acinetobacter baumannii [15]): 0.39 µg/mL
survival at 1 µg/mL (Acinetobacter baumannii [46]): 20%
MIC (Escherichia coli [20]): 0.1 µg/mL
MIC (Acinetobacter baumannii [21]): 0.05 µg/mL
MIC (Escherichia coli [22]): 0.05 µg/mL
MIC (Klebsiella pneumoniae [23]): 0.2 µg/mL
MIC (Escherichia coli [28]): 12.5 µg/mL
MIC (Acinetobacter baumannii [30]): 0.05 µg/mL
MIC (Escherichia coli [31]): 6.25 µg/mL
MIC (Acinetobacter baumannii [37]): 0.39 µg/mL
MIC (Acinetobacter baumannii [38]): 0.78 µg/mL
MIC (Acinetobacter baumannii [40]): 0.05 µg/mL
MIC (Pseudomonas aeruginosa [43]): 6.25 µg/mL
